# Experimental data: US5045566A, “Novel imidate insecticides” (ICI Americas Inc., priority 1989, dated 1991)
# How the values were obtained:
# Type in all cases: in vivo
# [1] = tested on: Tobacco Budworm [Heliothis virescens (Fabricius)] eggs; test: Tobacco budworm eggs (TBW-E); details: percent in solution; 2-day old eggs
# Method in brief: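 LC50 values (percent test compound in the dip solution) were calculated from dosage-mortality curves. Egg patches, 2 days old, were dipped in acetone solutions at concentrations from 0.1% downward and held at 78° F on rearing medium until control larvae hatched and fed.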
# [2] = tested on: Housefly [Musca domestica]; test: Housefly contact mortality in dishes (HF), 48 hours; details: μg of test compound per 25 female flies
# Method in brief: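 LC50 (μg compound per 25 female flies) derives from dosage-mortality curves of 48 h kill. Flies, females 1-2 days old, were held 25 per cage over a dish coated with dried acetone deposit, starting at 100 μg per cage and descending.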
# [3] = tested on: Black Bean Aphid [Aphis fabae (Scop.)]; test: Black bean aphid spray test on nasturtium (BBA), 48 hours; details: percent of test compound in sprayed solution
# Method in brief: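 LC50, given as percent test compound in the sprayed liquid, was calculated from dosage-mortality curves using concentrations from 0.05% downward. Sprays in 50:50 acetone-water went to runoff on ~5 cm nasturtiums carrying 25-50 aphids of mixed ages, one day after infestation. Deaths were counted 48 h later under greenhouse conditions.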
# [4] = tested on: Cabbage Looper [Trichoplusia ni (Hubner)]; test: Cabbage looper leaf dip (CL), 3-5 days; details: percent in solution, second-instar larvae
# Method in brief: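 Leaf dip, squash cotyledons, 50-50 acetone-water, top dose 0.1% and lower. 5 second-instar larvae/dish, moist filter paper, high-humidity chamber. Mortality at 3-5 d; LC50 (% in solution) from dosage-mortality curves.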
# [5] = tested on: Maize weevil [Sitophilus zeamais (Motschulsky)]; test: Maize weevil on dipped corn seeds (MW), 48 hours; details: percent in solution, adult weevils
# Description: The compounds in Tables 1 and 2 above were tested for insecticidal activity using the following testing procedures. LC50 values, based on the results of these tests and calculated according to dosage-mortality curves, are expressed in Table 3.
# Maize weevil [Sitophilus zeamais (Motschulsky)]:
# Test compounds were diluted in a 50:50 acetone:water solution. Four corn seeds [Zea mays (L.)] which had been immersed in test solutions for 2-3 seconds and allowed to dry were placed in containers together with 10 adult weevils. The containers were covered and kept at a temperature of about 25° C. Mortality was recorded after 48 hours. Test concentrations ranged from 0.01% down to that at which 50% mortality occurred. The LC50 values are expressed below in Table 3 under the heading "MW" in terms of percent of the test compound in solution.
SMILES,LC50 TBW E (eggs) [1] [%],LC50 HF [2] [µg],LC50 BBA [3] [%],LC50 CL [4] [%],LC50 MW [5] [%]
CC(C)C(=Nc1ccc2c(c1)OC(F)(F)O2)OCc1cccc(Oc2ccccc2)n1 [Compound 556],0.04,< 100,0.0035,0.0007,> 0.01
CC(C)C(=Nc1cccc(C(F)(F)F)c1)OCc1ccnc(Oc2ccccc2)c1 [Compound 507],> 0.1,93,0.05,0.002,> 0.01
CC(C)C(=Nc1ccc(Cl)c(F)c1)OCc1ccc(F)c(Oc2ccc(F)cc2)c1 [Compound 441],0.016,< 100,0.0003,0.000025,0.006
CC(C)C(=Nc1ccc(C(F)(F)F)cc1)OCc1cccc(Oc2ccccc2)n1 [Compound 504],0.05,< 100,0.0003,0.00025,0.01
CC(C)C(=Nc1ccc(Cl)cc1)OCc1cccc(Oc2ccc(Cl)cc2)n1 [Compound 554],0.04,> 100,0.003,0.00075,> 0.01
CCOc1ccc(N=C(OCc2ccc(F)c(Oc3ccccc3)c2)C(C)C)cc1F [Compound 439],> 0.1,> 100,0.0003,0.00045,> 0.01
CC(C)C(=Nc1ccc(C#N)cc1)OCc1ccc(F)c(Oc2ccc(F)cc2)c1 [Compound 394],0.05,< 100,0.002,0.00025,> 0.01
CC(C)C(=Nc1ccc(OCC(F)(F)F)cc1)OCc1ccc(F)c(Oc2ccccc2)c1 [Compound 422],0.05,< 100,> 0.05,0.00075,> 0.01
CC(C)C(=Nc1ccc(C#N)cc1)OCc1ccc(F)c(Oc2ccc(Cl)cc2)c1 [Compound 392],0.039,< 100,0.001,0.00034,> 0.01
CC(C)C(=Nc1ccc(F)c(I)c1)OCc1cccc(Oc2ccc(Cl)cc2)c1 [Compound 413],0.04,< 100,> 0.05,0.0007,> 0.01
C=C(C)C(=Nc1ccc(C(F)(F)F)cc1)OCc1cccc(Oc2ccc(Cl)cc2)n1 [Compound 560],< 0.1,< 100,0.0025,0.0015,> 0.01
CC(C)C(=Nc1ccc(OCC(F)(F)F)c(Cl)c1)OCc1ccc(F)c(Oc2ccccc2)c1 [Compound 424],0.035,> 100,0.002,0.00038,> 0.01
COc1ccc(N=C(OCc2ccc(F)c(Oc3ccc(Cl)cc3)c2)C(C)C)cc1Cl [Compound 410],> 0.1,< 100,0.0025,> 0.1,> 0.01
CCOc1ccc(N=C(OCc2ccc(F)c(Oc3ccccc3)c2)C(C)C)cc1 [Compound 373],> 0.1,< 100,0.001,> 0.1,> 0.01
CC(C)C(=Nc1ccc(F)c(Br)c1)OCc1ccc(F)c(Oc2ccc(Cl)cc2)c1 [Compound 379],0.02,< 100,0.0006,0.00075,> 0.01
CC(C)C(=Nc1ccc(OC(F)(F)F)cc1)OCc1cccc(Oc2ccccc2)n1 [Compound 550],> 0.1,< 100,0.002,0.00034,> 0.01
CCOc1cccc(N=C(OCc2ccc(F)c(Oc3ccc(F)cc3)c2)C(C)C)c1 [Compound 426],> 0.1,> 100,0.0012,0.002,> 0.01
Cc1cc(N=C(OCc2ccc(F)c(Oc3ccccc3)c2)C(C)C)ccc1F [Compound 400],0.025,< 100,0.0003,0.0007,> 0.01
CC(C)C(=Nc1ccc(C(F)(F)F)cc1Cl)OCc1cccc(Oc2ccc(F)cc2)c1 [Compound 427],> 0.1,> 100,0.05,< 0.1,> 0.01
CC(C)C(=Nc1ccc(F)c(I)c1)OCc1ccc(F)c(Oc2ccccc2)c1 [Compound 334],0.013,9,0.0006,0.0007,> 0.01
CC(C)C(=Nc1ccc(F)c(Cl)c1)OCc1ccnc(Oc2ccc(F)cc2)c1 [Compound 511],> 0.1,89,0.05,0.0012,> 0.01
Cc1cc(N=C(OCc2ccc(F)c(Oc3ccc(Cl)cc3)c2)C(C)C)ccc1F [Compound 399],0.025,< 100,0.0003,0.0012,> 0.01
CC(C)C(=Nc1ccc(F)c(Cl)c1)OCc1cccc(Oc2cccc(Cl)c2)c1 [Compound 203],0.06,43,0.006,0.0025,> 0.01
CC(C)C(=Nc1ccc(Cl)c(C(F)(F)F)c1)OCc1ccc(F)c(Oc2ccc(F)cc2)c1 [Compound 340],0.04,34,0.001,0.00037,0.0069
CC(C)C(=Nc1ccc(C#N)cc1)OCc1cccc(Oc2ccc(Cl)cc2)c1 [Compound 393],> 0.1,< 100,> 0.05,0.00037,> 0.01
CC(C)C(=Nc1ccc(F)c(Br)c1)OCc1cccc(Oc2ccc(Cl)cc2)c1 [Compound 398],< 0.1,< 100,0.002,< 0.1,> 0.01
